Assays:
Caco-2 monolayer = assay: Caco-2 Permeability Assay; assay type: in vitro ADME, human
In short: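 Bidirectional transport at 37 °C for 90 min, 10 μM donor concentration, with or without Pgp inhibitor, across 21-day Caco-2 monolayers with TEER >600 […] in HEPES-buffered HBSS, pH 7.4. LC-MS/MS of donor and receiver samples gives Papp, B→A/A→B efflux ratio and mass recovery.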

[1] = Stability in Simulated Gastric Fluid (SGF); assay type: in vitro ADME; parameters: key: % parent compound remaining relative to 0-minute sample
In short: (§1)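 Percent of parent remaining relative to time zero was measured by LC-MS/MS over 0–60 min at 37 °C, 150 rpm. Test compound was 2 μg/mL final in pepsin-containing SGF, pH 1.2, or pancreatin-containing SIF, pH 6.8. Degradation half-life was derived from the log-linear decay where enough points allowed.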

[2] = Stability in Simulated Intestinal Fluid (SIF); assay type: in vitro ADME; parameters: key: % parent compound remaining relative to 0-minute sample
In short: as §1

Plasma Stability = assay type: in vitro ADME, human
In short: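 Parent compound quantified by LC-MS/MS after acetonitrile precipitation, reported as percent of control remaining (triplicate). Incubation: 1 hour, 37° C, fresh human plasma, compound at 1 μM.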

[3] = % remaining after 1 h in simulated gastric fluid
[4] = % remaining after 1 h in simulated intestinal fluid
[5] = % remaining after 1 h in human plasma
[6] = simulated gastric fluid, remaining at 1 h
[7] = simulated intestinal fluid, remaining at 1 h
[8] = donor 10 μM, 90 minutes, 37° C., direction not given
[9] = % remaining at 1 h, SGF with pepsin pH 1.2, 2 μg/mL, 37° C.
[10] = % remaining at 1 h, SIF with pancreatin pH 6.8, 2 μg/mL, 37° C.
[11] = % remaining at 1 h, human plasma, 1 μM, 37° C.

**Q.** Which “Caco-2 Papp” value (Caco-2 monolayer; Caco-2) does the source give for `CC(C)OCCn1c(SCOC(=O)[C@H](N)Cc2ccccc2)nc(=O)c2c1ccn2COC(=O)[C@H](N)Cc1ccccc1.O=C(O)C(F)(F)F.O=C(O)C(F)(F)F` [Example 312, bis(trifluoroacetic acid) {[5-({[(2R)-2-amino-3-phenylpropanoyl]oxy}methyl)-4-oxo-1-[2-(propan-2-yloxy)ethyl]-1H,4H,5H-pyrrolo[3,2-d]pyrimidin-2-yl]sulfanyl} methyl (2R)-2-amino-3-phenylpropanoate] here?
**A.** >0.994 nm/s

**Q.** And the SGF ([1]; % remaining @ 1 h)?
**A.** 99% @ 1 h

**Q.** What about the SIF ([2]; % remaining @ 1 h) of the same compound?
**A.** 29% @ 1 h

**Q.** And the “human Plasma stability” value (Plasma Stability; % remaining @ 1 h)?
**A.** 24% @ 1 h

**Q.** Which results are given for “17-[2-(propan-2-yloxy)ethyl]-16-sulfanylidene-3,5,8,11,13-pentaoxa-1,15,17-triazatricyclo[13.5.2.0^{18,21}]docosa-18(21),19-diene-4,12,22-trione [Example 404]”?
**A.** Caco-2 Papp (Caco-2 monolayer; Caco-2 monolayer): 50.8 nm/s; SGF [1, 3]: 92% remaining; SIF [2, 4]: 86% remaining; human Plasma stability (Plasma Stability; [5]): 77% remaining

**Q.** With `CC(C)OCCn1c(=S)[nH]c(=O)c2c1ccn2COC(=O)CCCCNC(=O)CN.O=C(O)C(F)(F)F` [Example 15, trifluoroacetic acid {4-oxo-1-[2-(propan-2-yloxy)ethyl]-2-sulfanylidene-1H,2H,3H,4H,5H-pyrrolo[3,2-d]pyrimidin-5-yl} methyl 5-(2-aminoacetamido)pentanoate] as the compound, how does the “Caco-2 Papp” value (Caco-2 monolayer; Caco-2 monolayer) read?
**A.** >5.67 nm/s

**Q.** And the SGF ([1]; % remaining at 1 h in simulated gastric fluid)?
**A.** 100%

**Q.** What about the SIF ([2]; % remaining at 1 h in simulated intestinal fluid) of the same compound?
**A.** 4% remaining

**Q.** What about the “human Plasma stability” value (Plasma Stability; % remaining at 1 h in human plasma) of the same compound?
**A.** 9% remaining

**Q.** With “5-{[({2-[2-(2-{[(tert-butoxy)carbonyl]amino}ethoxy)eth-oxy]ethoxy}carbonyl)oxy]methyl}-1-[2-(propan-2-yloxy)ethyl]-2-sulfanylidene-1H,2H,3H,4H,5H-pyrrolo[3,2-d]pyrimidin-4-one [Example 370]” as the compound, how does the “Caco-2 Papp” value (Caco-2 monolayer; Caco-2 monolayer) read?
**A.** 15.4 nm/s

**Q.** What about the SGF [1, 6] of the same compound?
**A.** 99% remaining

**Q.** And the SIF [2, 7]?
**A.** 35% remaining

**Q.** And the “human Plasma stability” value (Plasma Stability; human plasma, remaining at 1 h)?
**A.** 1% remaining

**Q.** For “5-{[2-({[(5-{[(2S)-2-{[(tert-butoxy)carbonyl]amino}-4-methylpentanoyl]oxy}penta-noyl)oxy]methyl}sulfanyl)-4-oxo-1-[2-(propan-2-yloxy)ethyl]-1H,4H,5H-pyrrolo[3,2-d]pyrimidin-5-yl]methoxy}-5-oxopentyl (2S)-2-{[(tert-butoxy)carbonyl]amino}-4-methylpentanoate [Example 343]”, which “Caco-2 Papp” value (Caco-2 monolayer; Caco-2) is on record?
**A.** 46.7 nm/s

**Q.** And the SGF ([1]; % remaining @ 1 h)?
**A.** 82% remaining

**Q.** What about the SIF ([2]; % remaining @ 1 h) of the same compound?
**A.** 29% remaining

**Q.** And the “human Plasma stability” value (Plasma Stability; % remaining @ 1 h)?
**A.** 1% remaining

**Q.** With “trifluoroacetic acid ({4-oxo-1-[2-(propan-2-yloxy)ethyl]-1H,4H,5H-pyrrolo[3,2-d]pyrimidin-2-yl}sulfanyl)methyl N-[2-(2-aminoethoxy)ethyl]carbamate [Example 374]” as the compound, how does the “Caco-2 Papp” value (Caco-2 monolayer; Caco-2 monolayer) read?
**A.** 90.6 nm/s

**Q.** What about the SGF [1, 6] of the same compound?
**A.** 75% remaining

**Q.** And the SIF [2, 7]?
**A.** 94% remaining

**Q.** And the “human Plasma stability” value (Plasma Stability; human plasma, remaining at 1 h)?
**A.** 82% remaining

**Q.** With `CC(C)C[C@@H](NC(=O)OC(C)(C)C)C(=O)OCCCCC(=O)OCn1c(=O)c2c(ccn2COC(=O)CCCCOC(=O)[C@@H](CC(C)C)NC(=O)OC(C)(C)C)n(CCOC(C)C)c1=S` [Example 349, 5-[(3-{[(5-{[(2R)-2-{[(tert-butoxy)carbonyl]amino}-4-methylpentanoyl]oxy}penta-noyl)oxy]methyl}-4-oxo-1-[2-(propan-2-yloxy)ethyl]-2-sulfanylidene-1H,2H,3H,4H,5H-pyrrolo[3,2-d]pyrimidin-5-yl)methoxy]-5-oxopentyl (2R)-2-{[(tert-butoxy)carbonyl]amino}-4-methylpentanoate] as the compound, how does the “Caco-2 Papp” value (Caco-2 monolayer; Caco-2 monolayer) read?
**A.** 49.9 nm/s

**Q.** What about the SGF [1, 6] of the same compound?
**A.** 99% remaining

**Q.** What about the SIF [2, 7] of the same compound?
**A.** 8% remaining

**Q.** What about the “human Plasma stability” value (Plasma Stability; human plasma, remaining at 1 h) of the same compound?
**A.** 6% remaining

**Q.** With `CC(C)OCCn1c(SCOC(=O)N(C)Cc2ccccc2)nc(=O)c2c1ccn2COC(=O)N(C)Cc1ccccc1.O=C(O)C(F)(F)F` [Example 174, trifluoroacetic acid {2-[{{[benzyl(methyl)carba-moyl]oxy}methyl)sulfanyl]-4-oxo-1-[2-(propan-2-yloxy)ethyl]-1H,4H,5H-pyrrolo[3,2-d]pyrimidin-5-yl}methyl N-benzyl-N-methylcarbamate] as the compound, how does the “Caco-2 Papp” value (Caco-2 monolayer; Caco-2 monolayer) read?
**A.** 304 nm/s

**Q.** What about the SGF ([1]; % @ 1 h (remaining) in simulated gastric fluid) of the same compound?
**A.** 99% @ 1 h

**Q.** What about the SIF ([2]; % @ 1 h (remaining) in simulated intestinal fluid) of the same compound?
**A.** 99% @ 1 h

**Q.** And the “human Plasma stability” value (Plasma Stability; % @ 1 h (remaining) in human plasma)?
**A.** 99% @ 1 h

**Q.** With “(2R)-2-{[(tert-butoxy)carbonyl]amino}-N-[2-(2-{[{{4-oxo-1-[2-(propan-2-yloxy)ethyl]-2-sulfanylidene-1H,2H,3H,4H,5H-pyrrolo[3,2-d]pyrimidin-5-yl}methoxy)carbonyl]oxy}ethoxy)eth-yl]-3-phenylpropanamide [Example 387]” as the compound, how does the “Caco-2 Papp” value (Caco-2 monolayer; Caco-2 monolayer) read?
**A.** 45 nm/s

**Q.** What about the SGF [1, 6] of the same compound?
**A.** 92% remaining

**Q.** What about the SIF [2, 7] of the same compound?
**A.** 75% remaining

**Q.** And the “human Plasma stability” value (Plasma Stability; human plasma, remaining at 1 h)?
**A.** 1% remaining

**Q.** For `CC(C)OCCn1c(=S)n(COC(=O)OCCOCCOC(N)=O)c(=O)c2[nH]ccc21` [Example 403, 3-{[{{2-[2-(carbamoyloxy)ethoxy]ethoxy}car-bonyl)oxy]methyl}-1-[2-(propan-2-yloxy)ethyl]-2-sulfanylidene-1H,2H,3H,4H,5H-pyrrolo[3,2-d]pyrimidin-4-one], which “Caco-2 Papp” value (Caco-2 monolayer; Caco-2 monolayer) is on record?
**A.** 4.77 nm/s

**Q.** And the SGF [1, 3]?
**A.** 98% remaining

**Q.** What about the SIF [2, 4] of the same compound?
**A.** 54% remaining

**Q.** What about the “human Plasma stability” value (Plasma Stability; [5]) of the same compound?
**A.** 0% remaining

**Q.** With `CC(C)OCCn1c(=S)[nH]c(=O)c2c1ccn2COC(=O)[C@H]1CCCN1C(=O)OCC1c2ccccc2-c2ccccc21` [Example 5, 1-(9H-fluoren-9-ylmethyl) 2-{4-oxo-1-[2-(propan-2-yloxy)ethyl]-2-sulfanylidene-1H, 2H,3H,4H,5H-pyrrolo[3,2-d]pyrimidin-5-yl}methyl(2R)-pyrrolidine-1,2-dicarboxylate] as the compound, how does the “Caco-2 Papp” value (Caco-2 monolayer; [8]) read?
**A.** 140 nm/s

**Q.** And the SGF [1, 9]?
**A.** 90%

**Q.** What about the SIF [2, 10] of the same compound?
**A.** 76%

**Q.** And the “human Plasma stability” value (Plasma Stability; [11])?
**A.** 97%

**Q.** Which “Caco-2 Papp” value (Caco-2 monolayer; Caco-2 monolayer) does the source give for “{4-oxo-1-[2-(propan-2-yloxy)ethyl]-2-sulfanylidene-1H,2H,3H,4H,5H-pyrrolo [3,2-d]pyrimidin-5-yl}methyl 2-[(2S)-2-(benzoyloxy)-N,3-dimethylbutanamido]acetate [Example 401]” here?
**A.** 4.3 nm/s

**Q.** And the SGF [1, 3]?
**A.** 90% remaining

**Q.** And the SIF [2, 4]?
**A.** 8% remaining

**Q.** And the “human Plasma stability” value (Plasma Stability; [5])?
**A.** 0% remaining

**Q.** Which results are given for `CC(C)OCCn1c(=S)[nH]c(=O)c2c1ccn2C(C)OC(=O)OC(C)C` (stereo not drawn) [Example 92, 1-{4-oxo-1-[2-(propan-2-yloxy)ethyl]-2-sulfanylidene-1H,2H,3H,4H,5H-pyrrolo[3,2-d]pyrimidin-5-yl}ethyl propan-2-yl carbonate]?
**A.** Caco-2 Papp (Caco-2 monolayer; [8]): unstable; SGF [1, 9]: 1% remaining; SIF [2, 10]: 74% remaining; human Plasma stability (Plasma Stability; [11]): 0% remaining

**Q.** Which results are given for “(2R)-2-amino-N-[2-(2-{[{{4-oxo-1-[2-(propan-2-yloxy)ethyl]-2-sulfanylidene-1H,2H,3H,4H,5H-pyrrolo[3,2-d]pyrimidin-5-yl}methoxy)carbonyl]oxy}ethoxy)eth-yl]-3-phenylpropanamide; trifluoroacetic acid [Example 388]”?
**A.** Caco-2 Papp (Caco-2 monolayer; Caco-2 monolayer): <19.9 nm/s; SGF [1, 6]: 97% remaining; SIF [2, 7]: 73% remaining; human Plasma stability (Plasma Stability; human plasma, remaining at 1 h): 1% remaining

**Q.** Which “Caco-2 Papp” value (Caco-2 monolayer; Caco-2 monolayer) does the source give for “5-[{[4-(carbamoyloxy)butoxy]carbon-yl}oxy)methyl]-1-[2-(propan-2-yloxy)ethyl]-2-sulfanylidene-1H,2H,3H,4H,5H-pyrrolo[3,2-d]pyrimidin-4-one [Example 411]” here?
**A.** <1.07 nm/s

**Q.** And the SGF [1, 3]?
**A.** 92% remaining

**Q.** And the SIF [2, 4]?
**A.** 22% remaining

**Q.** What about the “human Plasma stability” value (Plasma Stability; [5]) of the same compound?
**A.** 1% remaining
